# Measured values from patent US6900219B2, “ABCA-1 elevating compounds” (CV Therapeutics, Inc., priority 2002, dated 2005).
# Tested on: ABCA-1 gene
# Assay: compounds tested and found to elevate cellular expression of the ABCA-1 gene (Examples 1-6; test not named)
# Assay type: cell-based
# Method: Activity testing is conducted as described in those patents and patent applications referenced above, and in the Examples below, and by methods apparent to one skilled in the art.
row,Compound,cellular expression of the ABCA-1 gene
1,"CCCCNC(=O)c1cnn(-c2nc(-c3ccc(C)cc3)cs2)c1C [{5-methyl-1-[4-(4-methylphenyl)(1,3-thiazol-2-yl)]pyrazol-4-yl}-N-butylcarboxamide]",elevate cellular expression of the ABCA-1 gene
2,"CCCCCNC(=O)c1cnn(-c2nc(-c3ccc(C)cc3)cs2)c1C [{5-methyl-1-[4-(4-methylphenyl)(1,3-thiazol-2-yl)]pyrazol-4-yl}-N-pentylcarboxamide]",elevate cellular expression of the ABCA-1 gene
3,"(2,4-difluorophenyl)-N-(4-naphthyl(1,3-thiazol-2-yl))carboxamide",elevate cellular expression of the ABCA-1 gene
4,(3-chlorobenzo[b]thiophen-2-yl)-N-(ethynylcyclohexyl)carboxamide,elevate cellular expression of the ABCA-1 gene
5,N-(2-phenylcyclopropyl)piperidylcarboxamide,elevate cellular expression of the ABCA-1 gene
6,"N-(4-naphthyl(1,3-thiazol-2-yl))(4-phenylphenyl)carboxamide",elevate cellular expression of the ABCA-1 gene
7,"N-(4-naphthyl(1,3-thiazol-2-yl))[3-(trifluoromethyl)phenyl]carboxamide",elevate cellular expression of the ABCA-1 gene
8,"N-(4-naphthyl(1,3-thiazol-2-yl))[4-(trifluoromethoxy)phenyl]carboxamide",elevate cellular expression of the ABCA-1 gene
9,"[4-(methylethyl)phenyl]-N-(4-oxo(1,3-thiazolin-2-yl))carboxamide",elevate cellular expression of the ABCA-1 gene
10,"[4-(tert-butyl)phenyl]-N-(4-naphthyl(1,3-thiazol-2-yl))carboxamide",elevate cellular expression of the ABCA-1 gene
11,[((2E)-2-pentyl-3-phenylprop-2-enyl)({1-[(4-butylphenyl)carbonyl](4-piperidyl)}methyl)amino]-N-benzamide,elevate cellular expression of the ABCA-1 gene
12,"{1-[4-(3-methoxyphenyl)(1,3-thiazol-2-yl)]-5-methylpyrazol-4-yl}-N-(methylethyl)carboxamide",elevate cellular expression of the ABCA-1 gene
